Where two headings read alike, the source gives them in different places.
What was measured:
Type in all cases: in vivo
[1] = system: Spodoptera littoralis; assay: Spodoptera littoralis (Egyptian cotton leaf worm), cotton leaf disc spray test; details: foliar, 72 h, read-out: control (at least one of mortality, anti-feedant effect, growth inhibition); for percent control (mortality, anti-feedant effect or growth inhibition) at 200 ppm: application rate 200 ppm, L1 larvae, 3 days after infestation
Procedure: Spodoptera littoralis (Egyptian Cotton Leaf Worm)
Cotton leaf discs were placed on agar in 24-well microtiter plates and sprayed with aqueous test solutions prepared from 10′000 ppm DMSO stock solutions. After drying the leaf discs were infested with five L1 larvae. The samples were assessed for mortality, anti-feedant effect, and growth inhibition in comparison to untreated samples 3 days after infestation. Control of Spodoptera littoralis by a test sample is when at least one of mortality, anti-feedant effect, and growth inhibition is higher than the untreated sample.

[2] = system: Plutella xylostella; assay: Plutella xylostella (diamond back moth), artificial diet test; details: 120 h, read-out: control (mortality and growth inhibition)
Procedure: Plutella xylostella (Diamond Back Moth):
(§1) 24-well microtiter plates with artificial diet were treated with aqueous test solutions prepared from 10′000 ppm DMSO stock solutions by pipetting. After drying, the plates were infested with L2 larvae (10 to 15 per well). The samples were assessed for mortality and growth inhibition in comparison to untreated samples 5 days after infestation.

[3] = system: Diabrotica balteata; assay: Diabrotica balteata (corn root worm), maize sprout test; details: 96 h, read-out: control (mortality and growth inhibition)
Procedure: Diabrotica balteata, (Corn Root Worm)
as §1, with “Maize sprouts, placed on an agar layer in 24-well” for “24-well”, “plates” for “plates with artificial diet”, “spraying.” for “pipetting.”, “(6” for “(10”, “10” for “15”, “4” for “5”

[4] = system: Thrips tabaci; assay: Thrips tabaci (onion thrips), sunflower leaf disc test; details: foliar, 144 h, read-out: control (mortality)
Procedure: Thrips tabaci (Onion Thrips):
(§2) Sunflower leaf discs were placed on agar in 24-well microtiter plates and sprayed with aqueous test solutions prepared from 10′000 ppm DMSO stock solutions. After drying the leaf discs were infested with a thrips population of mixed ages. The samples were assessed for mortality 6 days after infestation.

[5] = system: Tetranychus urticae; assay: Tetranychus urticae (two-spotted spider mite), bean leaf disc test; details: foliar, 192 h, read-out: control (mortality on mixed population, mobile stages)
Procedure: Tetranychus urticae (Two-Spotted Spider Mite):
as §2, with “Bean” for “Sunflower”, “discs” for “discs were placed”, “were” for “and”, “mite” for “thrips”, “on mixed population (mobile stages) 8” for “6”

[6] = system: Euschistus heros; assay: Euschistus heros (neotropical brown stink bug), soybean leaf test; details: 120 h, read-out: effect in at least one of the two categories (mortality or growth inhibition); for percent effect (mortality or growth inhibition) at 200 ppm: application rate 200 ppm, N2 nymphs, 5 days after infestation
Procedure: Euschistus heros (Neotropical Brown Stink Bug):
Soybean leaves on agar in 24-well microtiter plates were sprayed with aqueous test solutions prepared from 10′000 ppm DMSO stock solutions. After drying the leaves were infested with N2 nymphs. The samples were assessed for mortality and growth inhibition in comparison to untreated samples 5 days after infestation.

[7] = system: Myzus persicae; assay: Myzus persicae (green peach aphid), sunflower leaf disc spray test; details: foliar, 144 h
Procedure: (§3) Myzus persicae (Green Peach Aphid):
Sunflower leaf discs were placed on agar in a 24-well microtiter plate and sprayed with test solutions at an application rate of 200 ppm. After drying, the leaf discs were infested with an aphid population of mixed ages. After an incubation period of 6 DAT, samples were checked for mortality. The following compounds gave at least 80% mortality of Myzus persicae: compounds 1,2, 3, 4, 5, 6, 11, 12, 15, 17, 18, 19, 20, 23, 24, 25, 26, 27, 30, 32, 33, 34 35, 41, 43, 44, 47, 50, 55, 58, 59, 60, 61, 62, 63, 64, 65 and 66.

[8] = system: Myzus persicae; assay: Myzus persicae (green peach aphid), sucrose solution / Parafilm test; details: 120 h
Excerpt: as §3
Test compounds were applied by pipette into 24 well plates and mixed with Sucrose solution. Application rate: 12.5 ppm. The plates were closed with a stretched parafilm. A plastic stencil with 24 holes is placed onto the plate and infested pea seedlings were placed directly on the Parafilm. The infested plate is closed with a gel blotting paper and another plastic stencil and then turned upside down. 5 days after infestation the samples were checked on mortality.

[9] = application rate 200 ppm, L2 larvae, 5 days after infestation
[10] = application rate 200 ppm, L2 larvae, 4 days after infestation
[11] = application rate 200 ppm, mixed ages, 6 days after infestation
[12] = application rate 200 ppm, 8 days after infestation
[13] = application rate 200 ppm, mixed ages, 6 DAT, read-out: mortality
[14] = test rate of 12 ppm, sucrose solution, 5 days after infestation, read-out: mortality

Cn1nc(OC(F)(F)C(F)OC(F)(F)C(F)(F)C(F)(F)F)c(C(F)(F)F)c1-n1cc(-c2ccc(Cl)c(C(=O)NC3(C#N)CC3)c2)cn1 (centres unmarked) [compound 17]
≥ 80%: mortality at 200 ppm [1] | mortality at 200 ppm [2] | mortality at 200 ppm [3] | mortality at 200 ppm [4] | mortality at 200 ppm [5] | percent control (mortality or growth inhibition) at 200 ppm [6] | mortality at 200 ppm [7] | mortality at 12 ppm [8]

Cn1nc(OCC(F)(F)OC(F)(F)C(F)(F)OC(F)(F)F)c(C(F)(F)F)c1-n1cc(-c2ccc(Cl)c(C(=O)NC3(C#N)CC3)c2)cn1 [compound 18]
≥ 80%: percent control (mortality, anti-feedant effect or growth inhibition) at 200 ppm [1] | mortality at 200 ppm [2, 9] | mortality at 200 ppm [3, 10] | mortality at 200 ppm [4, 11] | mortality at 200 ppm [5, 12] | percent effect (mortality or growth inhibition) at 200 ppm [6] | mortality at 200 ppm [7, 13] | mortality at 12 ppm [8, 14]

Cn1nc(OCC(F)(F)C(F)(F)C(F)(F)F)c(C(F)(F)F)c1-n1cc(-c2ccc(Cl)c(C(=O)NC3(C#N)CC3)c2)cn1 [compound 19]
≥ 80%: mortality at 200 ppm [1] | mortality at 200 ppm [2] | mortality at 200 ppm [3] | mortality at 200 ppm [4] | mortality at 200 ppm [5] | percent control (mortality or growth inhibition) at 200 ppm [6] | mortality at 200 ppm [7] | mortality at 12 ppm [8]

Cn1nc(OCC(F)(F)C(F)(F)C(F)(F)C(F)F)c(C(F)(F)F)c1-n1cc(-c2ccc(Cl)c(C(=O)NC3(C#N)CC3)c2)cn1 [compound 20]
≥ 80%: mortality at 200 ppm [1] | mortality at 200 ppm [2] | mortality at 200 ppm [3] | mortality at 200 ppm [4] | mortality at 200 ppm [5] | percent control (mortality or growth inhibition) at 200 ppm [6] | mortality at 200 ppm [7] | mortality at 12 ppm [8]

Cn1nc(OCC(F)F)c(C(F)(F)F)c1-n1cc(-c2ccc(Cl)c(C(=O)NC3(C#N)CC3)c2)cn1 [compound 23]
≥ 80%: percent control (mortality, anti-feedant effect or growth inhibition) at 200 ppm [1] | mortality at 200 ppm [2, 9] | mortality at 200 ppm [3, 10] | mortality at 200 ppm [4, 11] | mortality at 200 ppm [5, 12] | percent effect (mortality or growth inhibition) at 200 ppm [6] | mortality at 200 ppm [7, 13] | mortality at 12 ppm [8, 14]

Cn1nc(OCC(F)(F)OC(F)(F)C(F)(F)OC(F)(F)F)c(C(F)(F)F)c1-n1cc(-c2ccc(Cl)c(C(=O)NC3CC3)c2)cn1 [compound 25]
≥ 80%: percent control (mortality, anti-feedant effect or growth inhibition) at 200 ppm [1] | mortality at 200 ppm [2, 9] | mortality at 200 ppm [3, 10] | mortality at 200 ppm [4, 11] | mortality at 200 ppm [5, 12] | percent effect (mortality or growth inhibition) at 200 ppm [6] | mortality at 200 ppm [7, 13] | mortality at 12 ppm [8, 14]

Cn1nc(OCC(F)(F)C(F)(F)C(F)(F)F)c(C(F)(F)F)c1-n1cc(-c2ccc(Cl)c(C(=O)NC3CC3)c2)cn1 [compound 26]
≥ 80%: mortality at 200 ppm [1] | mortality at 200 ppm [2] | mortality at 200 ppm [3] | mortality at 200 ppm [4] | mortality at 200 ppm [5] | percent control (mortality or growth inhibition) at 200 ppm [6] | mortality at 200 ppm [7] | mortality at 12 ppm [8]

Cn1nc(OCC(F)(F)C(F)(F)C(F)(F)C(F)F)c(C(F)(F)F)c1-n1cc(-c2ccc(Cl)c(C(=O)NC3CC3)c2)cn1 [compound 27]
≥ 80%: mortality at 200 ppm [1] | mortality at 200 ppm [2] | mortality at 200 ppm [3] | mortality at 200 ppm [4] | mortality at 200 ppm [5] | percent control (mortality or growth inhibition) at 200 ppm [6] | mortality at 200 ppm [7] | mortality at 12 ppm [8]

Cn1nc(OCC(F)(F)C(F)F)c(C(F)(F)F)c1-n1cc(-c2ccc(Cl)c(C(=O)NC3(C#N)CC3)c2)cn1 [compound 30]
≥ 80%: percent control (mortality, anti-feedant effect or growth inhibition) at 200 ppm [1] | mortality at 200 ppm [2, 9] | mortality at 200 ppm [3, 10] | mortality at 200 ppm [4, 11] | mortality at 200 ppm [5, 12] | percent effect (mortality or growth inhibition) at 200 ppm [6] | mortality at 200 ppm [7, 13] | mortality at 12 ppm [8, 14]

Cn1nc(OCC(F)(F)C(F)(F)F)c(C(F)(F)F)c1-n1cc(-c2ccc(Cl)c(C(=O)NC3CC3)c2)cn1 [compound 32]
≥ 80%: percent control (mortality, anti-feedant effect or growth inhibition) at 200 ppm [1] | mortality at 200 ppm [2, 9] | mortality at 200 ppm [3, 10] | mortality at 200 ppm [4, 11] | mortality at 200 ppm [5, 12] | percent effect (mortality or growth inhibition) at 200 ppm [6] | mortality at 200 ppm [7, 13] | mortality at 12 ppm [8, 14]

Cn1nc(OCC(F)(F)C(F)F)c(C(F)(F)F)c1-n1cc(-c2ccc(Cl)c(C(=O)NC3CC3)c2)cn1 [compound 33]
≥ 80%: percent control (mortality, anti-feedant effect or growth inhibition) at 200 ppm [1] | mortality at 200 ppm [2, 9] | mortality at 200 ppm [3, 10] | mortality at 200 ppm [4, 11] | mortality at 200 ppm [5, 12] | percent effect (mortality or growth inhibition) at 200 ppm [6] | mortality at 200 ppm [7, 13] | mortality at 12 ppm [8, 14]

Cn1nc(OC(F)(F)C(F)Br)c(C(F)(F)F)c1-n1cc(-c2ccc(Cl)c(C(=O)NC3(C#N)CC3)c2)cn1 (centres unmarked) [compound 47]
≥ 80%: percent control (mortality, anti-feedant effect or growth inhibition) at 200 ppm [1] | mortality at 200 ppm [2, 9] | mortality at 200 ppm [3, 10] | mortality at 200 ppm [4, 11] | mortality at 200 ppm [5, 12] | percent effect (mortality or growth inhibition) at 200 ppm [6] | mortality at 200 ppm [7, 13] | mortality at 12 ppm [8, 14]

Cn1nc(OC(F)(F)C(F)(C(F)=C(F)C(F)(F)F)C(F)(F)F)c(C(F)(F)F)c1-n1cc(-c2ccc(Cl)c(C(=O)NC3(C#N)CC3)c2)cn1 (centres unmarked) [compound 50]
≥ 80%: percent control (mortality, anti-feedant effect or growth inhibition) at 200 ppm [1] | mortality at 200 ppm [2, 9] | mortality at 200 ppm [3, 10] | mortality at 200 ppm [4, 11] | mortality at 200 ppm [5, 12] | percent effect (mortality or growth inhibition) at 200 ppm [6] | mortality at 200 ppm [7, 13] | mortality at 12 ppm [8, 14]

CN(C(=O)c1cc(-c2cnn(-c3c(C(F)(F)F)c(OC(F)(F)C(F)C(F)(F)F)nn3C)c2)ccc1Cl)C1(C#N)CC1 (centres unmarked) [compound 55]
≥ 80%: percent control (mortality, anti-feedant effect or growth inhibition) at 200 ppm [1] | mortality at 200 ppm [2, 9] | mortality at 200 ppm [3, 10] | mortality at 200 ppm [4, 11] | mortality at 200 ppm [5, 12] | percent effect (mortality or growth inhibition) at 200 ppm [6] | mortality at 200 ppm [7, 13] | mortality at 12 ppm [8, 14]

Cn1nc(OC(F)(F)C(F)C(F)(F)F)c(C(F)(F)F)c1-n1cc(-c2ccc(F)c(C(=O)NC3(C#N)CC3)c2)cn1 (centres unmarked) [compound 59]
≥ 80%: percent control (mortality, anti-feedant effect or growth inhibition) at 200 ppm [1] | mortality at 200 ppm [2, 9] | mortality at 200 ppm [3, 10] | mortality at 200 ppm [4, 11] | mortality at 200 ppm [5, 12] | percent effect (mortality or growth inhibition) at 200 ppm [6] | mortality at 200 ppm [7, 13] | mortality at 12 ppm [8, 14]

Cn1nc(OC(F)(F)C(F)C(F)(F)F)c(C(F)(F)F)c1-n1cc(-c2ccc(F)c(C(=O)NC3CC3)c2)cn1 (centres unmarked) [compound 60]
≥ 80%: percent control (mortality, anti-feedant effect or growth inhibition) at 200 ppm [1] | mortality at 200 ppm [2, 9] | mortality at 200 ppm [3, 10] | mortality at 200 ppm [4, 11] | mortality at 200 ppm [5, 12] | percent effect (mortality or growth inhibition) at 200 ppm [6] | mortality at 200 ppm [7, 13] | mortality at 12 ppm [8, 14]
